Measurements as given in patent US7732449B2, “Inhibitors of cathepsin S” (IRM LLC, priority 2003, dated 2010).
Like-named read-outs stand apart in the source and are kept apart here.

Assays:
Format in all cases: biochemical
[1] = target: Cathepsin S (Homo sapiens, UniProt P25774); assay: Cathepsin S inhibition, fluorogenic peptide substrate kinetic assay;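 note: cleavage rate of a coumarin-labelled peptide substrate (50 µM) read as fluorescence increase at Ex 380 nm and Em 450 nm, relative to inhibitor-free control reactions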
Chain of Cathepsin S (P25774 115-331, species assumed): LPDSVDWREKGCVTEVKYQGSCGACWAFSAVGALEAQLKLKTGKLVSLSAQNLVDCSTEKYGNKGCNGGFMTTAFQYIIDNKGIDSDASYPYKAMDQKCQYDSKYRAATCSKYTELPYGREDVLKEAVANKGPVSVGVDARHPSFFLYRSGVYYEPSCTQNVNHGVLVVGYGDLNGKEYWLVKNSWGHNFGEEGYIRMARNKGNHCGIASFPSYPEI

[2] = target: T1, Cathepsin K (Homo sapiens, UniProt P43235); assay: Cathepsin K inhibition, fluorogenic peptide substrate kinetic assay (selectivity); conditions: ratio of cathepsin K inhibition constant to cathepsin S inhibition constant
T1 sequence (P43235 115-329): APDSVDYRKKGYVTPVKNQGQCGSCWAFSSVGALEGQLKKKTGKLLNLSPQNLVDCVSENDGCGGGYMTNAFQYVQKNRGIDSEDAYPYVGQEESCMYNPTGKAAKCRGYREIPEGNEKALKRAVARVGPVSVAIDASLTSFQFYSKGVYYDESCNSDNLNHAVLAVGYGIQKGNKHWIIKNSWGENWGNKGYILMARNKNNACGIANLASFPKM

[3] = target: Cathepsin L (Homo sapiens, UniProt P07711); assay: Cathepsin L inhibition, fluorogenic peptide substrate kinetic assay (selectivity); conditions: ratio of cathepsin L inhibition constant to cathepsin S inhibition constant
Chain of Cathepsin L (P07711 114-333, species assumed): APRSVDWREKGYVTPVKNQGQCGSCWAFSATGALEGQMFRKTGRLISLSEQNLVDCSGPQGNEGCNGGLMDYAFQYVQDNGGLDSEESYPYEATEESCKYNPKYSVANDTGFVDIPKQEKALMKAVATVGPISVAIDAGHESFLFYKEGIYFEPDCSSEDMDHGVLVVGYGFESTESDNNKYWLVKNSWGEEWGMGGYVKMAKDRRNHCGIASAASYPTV

[4] = target: Cathepsin B (Homo sapiens, UniProt P07858); assay: Cathepsin B inhibition, fluorogenic peptide substrate kinetic assay (selectivity); conditions: ratio of cathepsin B inhibition constant to cathepsin S inhibition constant;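 note: value is the cathepsin B inhibition constant divided by the cathepsin S one, each from kinetic fluorescence readings (ex 380 nm, em 450 nm) of a 10 µM coumarin peptide substrate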
[5] = Cathepsin S inhibition constant, pH5.5, 20 minutes preincubation at room temperature, read-out: Ki Cat. S

SMILES	Ki [1, 5] [nM]	Selectivity for Cat. S over Cat. K [2]	Selectivity for Cat. S over Cat. L [3]	Selectivity for Cat. S over Cat. B [4]	Ki [1] [nM]
O=C(NCCN1CCc2cc(F)ccc21)[C@H](CC1CCCCC1)NC(=O)N1CCOCC1 [Example 2, Morpholine-4-carboxylic acid {2-cyclohexyl-1-(S)-[2-(5-fluoro-2,3-dihydro-indol-1-yl)-ethylcarbamoyl]-ethyl}-amide]	< 100	++ (++, >100)	+ (+, >10)	+++ (+++, >1000)	–
O=C(NCCNc1ccc(F)cc1)[C@H](CC1CCCCC1)NC(=O)N1CCOCC1 [Example 3, Morpholine-4-carboxylic acid {2-cyclohexyl-1-(S)-[2-(4-fluoro-phenylamino)-ethylcarbamoyl]-ethyl}-amide]	< 100	++ (++, >100)	+ (+, >10)	++ (++, >100)	–
COc1ccc(NCCNC(=O)[C@H](CC2CCCCC2)NC(=O)N2CCOCC2)cc1 [Example 4, Morpholine-4-carboxylic acid {2-cyclohexyl-1-(S)-[2-(4-methoxy-phenylamino)-ethylcarbamoyl]-ethyl}-amide]	< 100	++ (++, >100)	+ (+, >10)	+++ (+++, >1000)	–
O=C(NCCNc1ccc(F)cc1)O[C@@H](CC1CCCCC1)C(=O)N1CCOCC1 [Example 5, [2-(4-Fluoro-phenylamino)-ethyl]-carbamic acid 1-(S)-cyclohexylmethyl-2-morpholin-4-yl-2-oxo-ethyl ester]	1000 to 10000	+ (+, >10)	+ (+, >10)	+ (+, >10)	–
O=C(NCCNc1ccc(F)cc1)[C@@H](CC(=O)N1CCOCC1)CC1CCCCC1 [Example 6, 2-(R)-Cyclohexylmethyl-N-[2-(4-fluoro-phenylamino)-ethyl]-4-morpholin-4-yl-4-oxo-butyramide]	–	+ (+, >10)	+ (+, >10)	+ (+, >10)	1000 to 10000
CC1(C)CN([C@H]2COC[C@@H]2NC(=O)O[C@@H](CC2CCCCC2)C(=O)N2CCOCC2)c2ccc(F)cc21 [Example 7, [4-(R)-(5-Fluoro-3,3-dimethyl-2,3-dihydro-indol-1-yl)-tetrahydro-furan-3-(R)-yl]-carbamic acid 1-(S)-cyclohexylmethyl-2-morpholin-4-yl-2-oxo-ethyl ester]	1000 to 10000	+ (+, >10)	+ (+, >10)	+ (+, >10)	–
C[C@@H](CN1CCc2cc(F)ccc21)NC(=O)[C@@H](CC(=O)N1CCOCC1)CC1CCCCC1 [Example 8, 2-(R)-Cyclohexylmethyl-N-[2-(5-fluoro-2,3-dihydro-indol-1-yl)-1-(S)-methyl-ethyl]-4-morpholin-4-yl-4-oxo-butyramide]	< 100	++ (++, >100)	++ (++, >100)	+++ (+++, >1000)	–
O=C(C[C@@H](CC1CCCCC1)C(=O)N1CCOCC1)NCCNc1ccc(F)cc1 [Example 9, 3-(R)-Cyclohexylmethyl-N-[2-(4-fluoro-phenylamino)-ethyl]-4-morpholin-4-yl-4-oxo-butyramide]	–	+ (+, >10)	+ (+, >10)	+ (+, >10)	1000 to 10000
C[C@@H](CN1CCc2cc(F)ccc21)NC(=O)[C@H](CC1CCCCC1)OC(=O)N1CCOCC1 [Example 12, Morpholine-4-carboxylic acid 2-cyclohexyl-1-(S)-[2-(5-fluoro-2,3-dihydro-indol-1-yl)-1-(S)-methyl-ethylcarbamoyl]-ethyl ester]	100 to 1000	+ (+, >10)	+ (+, >10)	++ (++, >100)	–
C[C@@H](CNc1ccc(OC(F)(F)F)cc1)NC(=O)[C@H](CS(=O)(=O)Cc1ccccc1)NC(=O)N1CCOCC1 [Example 18, Morpholine-4-carboxylic acid {1-(R)-[1-(S)-methyl-2-(4-trifluoromethoxy-phenylamino)-ethylcarbamoyl]-2-phenylmethanesulfonyl-ethyl}-amide]	< 100	+++ (+++, >1000)	++ (++, >100)	++ (++, >100)	–
COc1ccc(NCCNC(=O)[C@@H](CC(=O)N2CCOCC2)CC2CCCCC2)cc1 [Example 19, (R)-2-Cyclohexylmethyl-N-[2-(4-methoxy-phenylamino)-ethyl]-4-morpholin-4-yl-4-oxo-butyramide]	100 to 1000	++ (++, >100)	++ (++, >100)	++ (++, >100)	–
C=CC[C@H](CC(=O)N1CCOCC1)C(=O)N[C@H](CNc1ccc(OC(F)(F)F)cc1)C(C)C [Example 47, 2-(R)-(2-Morpholin-4-yl-2-oxo-ethyl)-pent-4-enoic acid {2-methyl-1-(S)-[(4-trifluoromethoxy-phenylamino)-methyl]-propyl}-amide]	100 to 1000	–	+ (+, >10)	+ (+, >10)	–
CC(C)[C@@H](CNc1ccc(OC(F)(F)F)cc1)NC(=O)[C@H](CC(=O)N1CCOCC1)c1ccc(S(C)(=O)=O)cc1 [Example 71, 2-(R)-(4-methanesulfonyl-phenyl)-N-{2-methyl-1-(S)-[(4-trifluoromethoxy-phenylamino)-methyl]-propyl}-4-morpholin-4-yl-4-oxo-butyramide]	1000 to 10000	–	++ (++, >100)	+ (+, >10)	–
C[C@@H](CNc1ccc(OC(F)F)cc1)NC(=O)O[C@@H](CC(C)(C)C)C(=O)N1CCOCC1 [Example 85, [2-(4-Difluoromethoxy-phenylamino)-1-(S)-methyl-ethyl]-carbamic acid 3,3-dimethyl-1-(S)-(morpholine-4-carbonyl)-butyl ester]	1000 to 10000	–	+ (+, >10)	+ (+, >10)	–

Now from value to compound:

Ki [1, 5] [nM]	Selectivity for Cat. S over Cat. K [2]	Selectivity for Cat. S over Cat. L [3]	Selectivity for Cat. S over Cat. B [4]	Ki [1] [nM]	SMILES
–	++ (++, >100)	++ (++, >100)	++ (++, >100)	100 to 1000	O=C(NCCNc1ccc(OC(F)(F)F)cc1)[C@@H](CC(=O)N1CCOCC1)CC1CCCCC1 [Example 13, 2-(R)-Cyclohexylmethyl-4-morpholin-4-yl-4-oxo-N-[2-(4-trifluoromethoxy-phenylamino)-ethyl]-butyramide]
–	++ (++, >100)	++ (++, >100)	+++ (+++, >1000)	< 100	C[C@@H](CNc1ccc(OC(F)(F)F)cc1)NC(=O)[C@@H](CC(=O)N1CCOCC1)CC1CCCCC1 [Example 14, 2-(R)-Cyclohexylmethyl-N-[1-(S)-methyl-2-(4-trifluoromethoxy-phenylamino)-ethyl]-4-morpholin-4-yl-4-oxo-butyramide]
–	++ (++, >100)	++ (++, >100)	+++ (+++, >1000)	< 100	C[C@@H](CNc1ccc(OC(F)(F)F)cc1)NC(=O)[C@@H](CC(=O)N1CCOCC1)CC1CCCC1 [Example 15, 2-(R)-Cyclopentylmethyl-N-[1-(S)-methyl-2-(4-trifluoromethoxy-phenylamino)-ethyl]-4-morpholin-4-yl-4-oxo-butyramide]
100 to 1000	+ (+, >10)	+ (+, >10)	++ (++, >100)	–	C[C@@H](CNc1ccc(OC(F)(F)F)cc1)NC(=O)[C@H](CC1CCCC1)[C@@H](C)C(=O)N1CCOCC1 [Example 16, 2-(R)-Cyclopentylmethyl-3-(R)-methyl-N-[1-(S)-methyl-2-(4-trifluoromethoxy-phenylamino)-ethyl]-4-morpholin-4-yl-4-oxo-butyramide]
–	+ (+, >10)	+ (+, >10)	+++ (+++, >1000)	< 100	CCC[C@@H](CNc1ccc(OC(F)(F)F)cc1)NC(=O)[C@@H](CC(=O)N1CCOCC1)CC1CCCCC1 [Example 20, 2-(R)-Cyclohexylmethyl-4-morpholin-4-yl-4-oxo-N-{1-(S)-[(4-trifluoromethoxy-phenylamino)-methyl]-butyl}-butyramide]
–	++ (++, >100)	+++ (+++, >1000)	+++ (+++, >1000)	< 100	C[C@@H](CNc1ccc(OC(F)(F)F)cc1)NC(=O)[C@H](CCC1CCCCC1)CC(=O)N1CCOCC1 [Example 21, 2-(R)-(2-Cyclohexyl-ethyl)-N-[1-(S)-methyl-2-(4-trifluoromethoxy-phenylamino)-ethyl]-4-morpholin-4-yl-4-oxo-butyramide]
–	+ (+, >10)	+ (+, >10)	+++ (+++, >1000)	< 100	CC[C@@H](CNc1ccc(OC(F)(F)F)cc1)NC(=O)[C@@H](CC(=O)N1CCOCC1)CC1CCCCC1 [Example 22, 2-(R)-Cyclohexylmethyl-4-morpholin-4-yl-4-oxo-N-{1-(S)-[(4-trifluoromethoxy-phenylamino)-methyl]-propyl}-butyramide]
